{"source": "patent US20180135134A1", "about": "“TARGETED SELECTION OF PATIENTS FOR TREATMENT WITH CORTISTATIN DERIVATIVES” (President and Fellows of Harvard College, priority 2015, published 2018)", "key": {"CDK8/Cyclin C": {"target": "T1, CDK8/Cyclin C (Homo sapiens, UniProt P49336)", "T1 construct": "purchased ProQinase GmbH", "assay": "In vitro radiometric protein kinase assay (PanQinase)", "format": "biochemical", "conditions": "FIG. 8", "text": "A radiometric protein kinase assay was used (PanQinase activity assay; performed by ProQinase GmbH) as described (Hutterer, C. et al. Antimicrob. Agents Chemother. 59, 2062-2071 (2015))."}, "HL-60": {"tested_on": "HL-60", "assay": "Cellular proliferation assay (CellTiter-Glo)", "conditions": "Homo sapiens", "experimental": "(§1) All suspension cells were plated (96-well) in triplicate at 5,000-30,000 cells per well for testing (n=3). Viable cell number was estimated after 3, 7 and 10 days by counting viable cells from one vehicle well, generating a cell dilution series, transferring 20 ml per well in duplicate to a 384-well plate, and performing a linear regression to CellTiter-Glo (Promega) response (SPECTRAmax M3, Molecular Devices). Cells from all wells were also fourfold diluted in media and transferred in duplicate for CellTiter-Glo measurement. On days 3 and 7, an equal volume for all wells was split-back with fresh media and compound, such that the resulting cell density for the vehicle well matched the initial seeding density. For days 7 and 10, estimated cell number represents the split-adjusted theoretical cell number. […] For growth assays with inhibitors, n=3 for each concentration with two independent experiments."}, "Jurkat": {"tested_on": "Jurkat", "assay": "Cellular proliferation assay (CellTiter-Glo)", "conditions": "Homo sapiens", "experimental": "as §1"}, "CDK8/19": {"tested_on": "CDK8/19", "conditions": "1,000 nM cortistatin A; FIG. 7B", "experimental": "Native kinome profiling was performed with MOLM-14 cell lysate according to the KiNativ Method by ActivX Biosciences. For each peptide quantified, the change in mass spectrometry signal for the treated samples relative to the signal for the control samples was expressed as percentage inhibition."}, "MV4;11": {"tested_on": "MV4;11", "assay": "Cellular proliferation assay (CellTiter-Glo)", "conditions": "Homo sapiens", "experimental": "as §1"}, "ME-1": {"tested_on": "ME-1", "assay": "Cellular proliferation assay (CellTiter-Glo)", "conditions": "Homo sapiens, ME-1, 240 h", "experimental": "as §1"}, "SET-2 [1]": {"tested_on": "SET-2", "assay": "Cellular proliferation assay (CellTiter-Glo)", "conditions": "for GI50: Homo sapiens", "experimental": "as §1"}, "HCC827": {"tested_on": "HCC827", "assay": "Soft agar growth assay (Alamar Blue)", "conditions": "Non small cell lung carcinoma, EGFR mutation, 100 nM cortistatin A", "experimental": "(§2) For the 62 cell lines 96 well suspension cell culture plates were prepared. 100 μL of the soft agar bottom layer (0.6% final concentration in complete medium) was poured and left to solidify. 50 μL of the soft agar top layer (0.4% final concentration) containing the corresponding cells and cell number were then added on top, solidified and incubated at 37° C., 10% CO2. After the soft agar had solidified, the test items were added at indicated final concentrations into the inner wells of the plate. Subsequently, the assay was incubated in cell culture incubators for 8 to 14 days. Finally, the assay was developed using Alamar Blue and upon 1-5 h of incubation at 37° C. fluorescence intensity was determined (excitation: 560 nm; emission: 590 nm). As low control, cells were treated with 1E-05M Staurosporine (6fold values). As high control, cells were treated with 0.1% DMSO (solvent control, 6 fold values).\n(§3) Raw data were converted into percent soft agar growth relative to high controls (solvent 0.1% DMSO) and low controls (1E-05M Staurosporine), which were set to 100% and 0%, respectively."}, "[2]": {"tested_on": "megakaryocytic cell lines", "assay": "Cellular proliferation assay, megakaryocytic cell lines", "conditions": "Homo sapiens", "experimental": "as §1"}, "MOLM-16": {"tested_on": "MOLM-16", "assay": "Cellular proliferation assay (CellTiter-Glo)", "conditions": "Homo sapiens", "experimental": "as §1"}, "U87MG": {"tested_on": "U87MG", "assay": "Soft agar growth assay (Alamar Blue)", "conditions": "Glioma, Inactivating mutations in ETV1, FLL1 and SMC3, 100 nM cortistatin A", "experimental": "as §2, §3"}, "[3]": {"tested_on": "disseminated MV4;11-mCLP leukemia", "assay": "MV4;11 xenograft model in NSG mice", "format": "in vivo, mouse", "procedure": "The MV4;11 xenograft model was performed as previously described (Etchin, J. et al. Antileukemic activity of nuclear export inhibitors that spare normal hematopoietic cells. Leukemia 27, 66-74 (2013)). Two-million MV4; 11-mCLP cells were injected into the tail vein of 7-week-old female non-obese diabetic-severe combined immuno-deficient (NOD-SCID)Il2rg^−/− (NSG) mice (The Jackson Laboratory) and tumour burden was assessed by bioluminescence imaging (BLI) using an IVIS Spectrum system (Caliper Life Sciences). […] After 30 days, blood counts were obtained (Hemavet 950 F, Drew Scientific) and spleen, femur and peripheral blood cells were collected and analysed by flow cytometry (LSR Fortessa, BD Biosciences) from three mice per group, having the highest, lowest and median BLI value. […] Survival was measured as the time from therapy initiation until moribund state. […]\nThe MV4;11 xenograft model was performed as previously described (Etchin, J. et al. Antileukemic activity of nuclear export inhibitors that spare normal hematopoietic cells. Leukemia 27, 66-74 (2013)). Two-million MV4;11-mCLP cells were injected into the tail vein of 7-week-old female non-obese diabetic-severe combined immuno-deficient (NOD-SCID)Il2rg-^−/− (NSG) mice (The Jackson Laboratory) and tumour burden was assessed by bioluminescence imaging (BLI) using an IVIS Spectrum system (Caliper Life Sciences). […]"}, "MEG-01": {"tested_on": "MEG-01", "assay": "Cellular proliferation assay (CellTiter-Glo)", "conditions": "Homo sapiens", "experimental": "as §1"}, "RS4;11": {"tested_on": "RS4;11", "assay": "Cellular proliferation assay (CellTiter-Glo)", "conditions": "Homo sapiens", "experimental": "All suspension cells were plated (96-well) in triplicate at 5,000-30,000 cells per well for testing (n=3). Viable cell number was estimated after 3, 7 and 10 days by counting viable cells from one vehicle well, generating a cell dilution series, transferring 20 ml per well in duplicate to a 384-well plate, and performing a linear regression to CellTiter-Glo (Promega) response (SPECTRAmax M3, Molecular Devices). Cells from all wells were also fourfold diluted in media and transferred in duplicate for CellTiter-Glo measurement. On days 3 and 7, an equal volume for all wells was split-back with fresh media and compound, such that the resulting cell density for the vehicle well matched the initial seeding density. For days 7 and 10, estimated cell number represents the split-adjusted theoretical cell number. HCT116 were plated (96-well) in triplicate at 250 cells per well. Cells were incubated in the presence of vehicle, 1 μM paclitaxel, or compound. On day 7, CellTiter-Blue (Promega) response was measured and values were normalized to vehicle (100% growth) and paclitaxel (0% growth). For growth assays with inhibitors, n=3 for each concentration with two independent experiments."}, "[4]": {"tested_on": "megakaryocytic and erythroleukemia cell lines", "assay": "Comparison of sensitivity of megakaryocytic and erythroleukemia cell lines", "conditions": "K562 and HEL compared to MEG-01 and SET-2 (BCR-Abl or JAK2V617F)"}, "RUNX1": {"tested_on": "RUNX1", "assay": "RUNX1 recruitment to genomic loci", "format": "cell-based, human", "conditions": "FIG. 11"}, "ALL-SIL": {"tested_on": "ALL-SIL", "assay": "Cellular proliferation assay (CellTiter-Glo)", "conditions": "Homo sapiens", "experimental": "as §1"}, "T47D": {"tested_on": "T47D", "assay": "Soft agar growth assay (Alamar Blue)", "conditions": "Breast cancer, ER-alpha positive, 100 nM cortistatin A", "experimental": "as §2, §3"}, "SET-2 [5]": {"tested_on": "SET-2", "assay": "Synergy assay with ruxolitinib (Chou-Talalay), SET-2", "format": "cell-based, human", "conditions": "combination of cortistatin A with JAK1/2 inhibitor ruxolitinib, FIG. 5", "procedure": "SET-2 and UKE-1 cells were co-treated with constant ratios of ruxolitinib to CA, 1 to 1 or 10 to 1, in a 96-well growth assay format with a range of 2-fold dose dilutions of compounds. SET-2 and UKE-1 cells were also treated with ruxolitinib alone or CA alone in a 2-fold dilution series. The Chou-Talalay combination index values at 50% growth inhibition (Fa=0.5) were determined using CalcuSyn software (see Chou, T. C. Cancer Res. 2010 Jan. 15; 70(2):440-6) (FIG. 5)."}}, "data": [{"smiles": "CN(C)[C@H]1C[C@@]23CC[C@@]4(O2)C(=CC[C@]2(C)[C@@H](c5ccc6ccncc6c5)CC[C@H]24)C=C3[C@@H](O)[C@@H]1O", "note": "[Cortistatin A, cortistatin A]", "values": [{"measurement": "inhibition of CDK8/Cyclin C kinase activity", "setting": "CDK8/Cyclin C", "value": "potently inhibits CDK8/Cyclin C"}, {"measurement": "GI50", "setting": "HL-60", "value": 7, "unit": "nM"}, {"measurement": "GI50", "setting": "Jurkat", "value": 155, "unit": "nM"}, {"measurement": "kinase selectivity (native kinase % inhibition)", "setting": "CDK8/19", "value": "selectively inhibits CDK8/19"}, {"measurement": "GI50", "setting": "MV4;11; MV4-11", "value": 6, "unit": "nM"}, {"measurement": "GI50", "setting": "MV4;11; MV4-11, 240 h", "value": 6, "unit": "nM"}, {"measurement": "GI50", "setting": "ME-1", "value": 1, "unit": "nM"}, {"measurement": "GI50", "setting": "SET-2 [1]; SET-2", "value": 4, "unit": "nM"}, {"measurement": "GI50", "setting": "SET-2 [1]; SET-2, 240 h", "value": 4, "unit": "nM"}, {"measurement": "proliferation of SET-2 cells (theoretical cell number versus days of treatment)", "setting": "SET-2 [1]; dose-dependent, FIG. 4", "value": "inhibits the proliferation of SET-2 cells"}, {"measurement": "% growth rel. to vehicle", "setting": "HCC827", "value": 23, "unit": "%"}, {"measurement": "GI50", "setting": "[2]", "value": "< 10", "unit": "nM"}, {"measurement": "GI50", "setting": "MOLM-16; MOLM16", "value": "< 1", "unit": "nM"}, {"measurement": "GI50", "setting": "MOLM-16; MOLM16, 240 h", "value": "≤ 1", "unit": "nM"}, {"measurement": "% growth rel. to vehicle", "setting": "U87MG", "value": 36, "unit": "%"}, {"measurement": "leukemia cells in the lungs (haematoxylin and eosin staining)", "setting": "[3]; MV4;11 AML mice, Day 30, FIG. 10", "value": "fewer leukemia cells in the lungs"}, {"measurement": "spleen weight", "setting": "[3]; female NSG mice, once daily IP for 15 days, measured 37 days after injection of cells, FIG. 6", "value": "prevents spleen weight increase"}, {"measurement": "GI50", "setting": "MEG-01; MEG-01", "value": 9, "unit": "nM"}, {"measurement": "GI50", "setting": "MEG-01; MEG-01, 240 h", "value": 9, "unit": "nM"}, {"measurement": "GI50", "setting": "RS4;11", "value": 3, "unit": "nM"}, {"measurement": "difference in sensitivity between megakaryocytic and erythroleukemia cell lines with the same mutations", "setting": "[4]", "value": "more than 100 fold"}, {"measurement": "RUNX1 recruitment to loci", "setting": "RUNX1", "value": "RUNX1 was recruited to loci upregulated by CA treatment"}, {"measurement": "GI50", "setting": "ALL-SIL", "value": 2, "unit": "nM"}, {"measurement": "% growth rel. to vehicle", "setting": "T47D", "value": 48, "unit": "%"}, {"measurement": "combination index (synergy) for inhibition of proliferation", "setting": "SET-2 [5]", "value": "synergizes"}]}]}
